Columns and labels:
[1] = Inhibition of Wnt/beta-catenin pathway (unknown origin) expressed in HEK293 cells by Wnt-responsive super-topflash luciferase reporter assay; type: cell-based; conditions: Homo sapiens
SW480 = test: Antitumor activity against human SW480 cells xenografted in CB17/SCID mouse assessed as inhibition of tumor growth at 150 to 300 mg/kg after 3 weeks; type: functional
[2] = target: T1, Poly [ADP-ribose] polymerase tankyrase-1 (Homo sapiens) (UniProt O95271); test: Inhibition of TNKS1 (unknown origin) at 0.5 uM by colorimetric method
T1 sequence (whole entry): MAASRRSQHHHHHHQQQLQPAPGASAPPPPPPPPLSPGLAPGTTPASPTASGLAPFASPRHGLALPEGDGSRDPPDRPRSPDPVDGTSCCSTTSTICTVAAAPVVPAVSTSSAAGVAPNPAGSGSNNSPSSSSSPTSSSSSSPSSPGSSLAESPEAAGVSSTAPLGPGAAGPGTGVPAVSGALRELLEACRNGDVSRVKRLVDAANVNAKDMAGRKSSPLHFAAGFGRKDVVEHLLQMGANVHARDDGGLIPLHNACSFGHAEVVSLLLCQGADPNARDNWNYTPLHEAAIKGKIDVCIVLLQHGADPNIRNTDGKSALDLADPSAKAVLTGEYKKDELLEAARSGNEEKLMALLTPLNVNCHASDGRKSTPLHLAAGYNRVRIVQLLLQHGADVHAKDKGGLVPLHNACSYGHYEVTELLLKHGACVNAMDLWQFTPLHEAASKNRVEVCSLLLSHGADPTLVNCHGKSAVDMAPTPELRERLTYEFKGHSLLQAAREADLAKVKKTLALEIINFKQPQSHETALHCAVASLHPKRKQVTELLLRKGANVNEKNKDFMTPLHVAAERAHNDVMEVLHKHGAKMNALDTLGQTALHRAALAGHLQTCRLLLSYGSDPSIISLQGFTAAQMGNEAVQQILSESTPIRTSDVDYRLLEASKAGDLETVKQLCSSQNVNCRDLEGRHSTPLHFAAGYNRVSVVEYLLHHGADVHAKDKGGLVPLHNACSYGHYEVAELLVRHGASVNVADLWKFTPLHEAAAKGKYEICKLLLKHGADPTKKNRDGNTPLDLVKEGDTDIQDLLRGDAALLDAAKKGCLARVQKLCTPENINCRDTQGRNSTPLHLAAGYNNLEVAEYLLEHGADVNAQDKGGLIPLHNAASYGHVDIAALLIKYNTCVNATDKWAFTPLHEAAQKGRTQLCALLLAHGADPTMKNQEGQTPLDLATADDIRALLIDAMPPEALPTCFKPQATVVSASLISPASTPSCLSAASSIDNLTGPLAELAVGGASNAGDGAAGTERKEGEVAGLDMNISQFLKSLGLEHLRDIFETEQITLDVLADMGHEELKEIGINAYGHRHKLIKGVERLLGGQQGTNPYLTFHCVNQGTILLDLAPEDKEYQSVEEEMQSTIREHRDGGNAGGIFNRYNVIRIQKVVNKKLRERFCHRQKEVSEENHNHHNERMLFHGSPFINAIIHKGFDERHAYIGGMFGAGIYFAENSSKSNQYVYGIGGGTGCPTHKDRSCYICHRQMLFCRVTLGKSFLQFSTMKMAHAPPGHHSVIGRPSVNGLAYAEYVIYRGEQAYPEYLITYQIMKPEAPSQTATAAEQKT

MCF7 = test: Growth inhibition of human MCF7 cells incubated for 24 hrs by MTT assay; type: functional, cell-based; conditions: MCF7, 24 h
[3] = target: T2, Poly [ADP-ribose] polymerase tankyrase-1 (Homo sapiens, UniProt O95271); test: Inhibition of TNKS1 (unknown origin)
T2 sequence (O95271 whole entry): T1 sequence (whole entry)

[4] = target: T2, Poly [ADP-ribose] polymerase tankyrase-1
Description: Inhibition of human TNKS1 (1030 to 1317 residues) by fluorescence based activity assay

In the case of `N#Cc1ccccc1Cn1c(=O)n(CC2CCC(C(=O)NCc3ccccc3)CC2)c(=O)c2ccccc21` (centres undefined), the EC50 [1] is reported as 180 to 2000 nM.
For `COc1ccc(-n2c(SCc3nc(-c4ccc(C)cc4)no3)nnc2-c2ccncc2)cc1`, the TGI (SW480) was 30%.
Compound `Cc1c(Cl)cccc1NC(CC(=O)c1ccccc1)C(=O)OCC(=O)c1ccc([N+](=O)[O-])cc1` (centres undefined) has an inhibition [2] of 60% and an IC50 (MCF7) of 5000 nM.
`Cn1c(-c2ccc(Cl)cc2Cl)nc(=O)c2cccnc21` gave an IC50 [3] of 11000 nM.
`O=C(NC1CCCC1)c1ccc(Cn2c(=O)c3ccccc3n(Cc3cc(=O)n4ccccc4n3)c2=O)cc1` showed an EC50 [1] of 180 to 2000 nM.
For `Cc1cccc2nc(Cn3c(=O)n(CC4CCC(C(=O)NCc5ccccc5)CC4)c(=O)c4ccccc43)cc(=O)n12` (centres undefined), the EC50 [1] was 180 to 2000 nM.
For `O=C(Nc1cccc2cccnc12)c1ccc(C2C(=O)[C@@H]3[C@H](C2=O)[C@@H]2C=C[C@H]3C2)cc1` (some centres undefined), the EC50 [1] was 180 to 2000 nM.
`CC(C)(C)c1ccc(-c2nc3ccccc3c(=O)[nH]2)cc1` showed an IC50 [4] of 5 nM.

— ChEMBL document CHEMBL4270509, “Targeting Wnt-driven cancers: Discovery of novel tankyrase inhibitors” (Eur J Med Chem, 2017)
